# Data reported in patent US20030096237A1, “Determination of the ability of patients to respond to a tumor treatment” (priority 2000, published 2003).
# Legend:
# Assay in all cases: HLA class I induction, flow-cytometry
# Format in all cases: cell-based, human
# CNCM I-2544 = details: two days with IFN-α 100 U/ml, absence 305
# Experimental: (§1) Melanoma cell lines were screened for their sensitivity to proliferation inhibition and HLA class I induction. The study was done of six cell lines (CNCM I-2544, CNCM I-2545, CNCM I-2546, CNCM I-2547, CNCM I-2548 and CNCM I-2549).
# (§2) All these cell lines were cultured in RPMI medium supplemented with 10% FCS, glutamine (2 mM), sodium pyruvate (1 mM), non-essential amino acids and HEPES buffer (10 mM) (all from GIBCO Life Sciences, Paisley, UK). When confluent, the cells were passaged by trypsinization.
# (§3) A number of established melanoma cell lines were assayed for their sensitivity to IFN-α by testing the capacity of IFN-α to inhibit their proliferation and to increase their surface expression of HLA class I determinants.
# CNCM I-2546 = details: two days with IFN-α 100 U/ml, absence 257
# Experimental: as §1, §2, §3
# CNCM I-2547 = details: two days with IFN-α 100 U/ml, absence 135
# Experimental: as §1, §2, §3
# CNCM I-2549 = details: two days with IFN-α 100 U/ml, absence 203
# Experimental: as §1, §2, §3
# CNCM I-2545 = details: two days with IFN-α 100 U/ml, absence 196
# Experimental: as §1, §2, §3
# CNCM I-2548 = details: two days with IFN-α 100 U/ml, absence 380
# Experimental: as §1, §2, §3
substance,measurement,setting,value
IFN-α,"HLA class I induction, mean fluorescence intensity",CNCM I-2544,(442 vs. 305)
same,"HLA class I induction, mean fluorescence intensity",CNCM I-2546,(521 vs. 257)
same,"HLA class I induction, mean fluorescence intensity",CNCM I-2547,(980 vs. 135)
same,"HLA class I induction, mean fluorescence intensity",CNCM I-2549,(175 vs. 203)
same,"HLA class I induction, mean fluorescence intensity",CNCM I-2545,(184 vs. 196)
same,"HLA class I induction, mean fluorescence intensity",CNCM I-2548,(559 vs. 380)
